Drawing on US6376488B1, “Benzoxazine α-1 adrenergic compounds” (Abbott Laboratories, priority 2000, dated 2002), this text covers melting point for three compounds.

One may read the melting point as the temperature, or range, at which the solid turns liquid.

Counter-ions that a name gives are not always drawn.

Turning to `COc1cccc2c1N1CCN(CCCCn3c(=O)[nH]c4c(sc5cccnc54)c3=O)CC1CO2` (single isomer, unassigned; (+)) (as salt: hydrochloride) [Example 14, (+) 3-[4-(10-methoxy-1,2,4a,5-tetrahydropyrazino[2,1-c][1,4]benzoxazin-3(4H)-yl)butyl]pyido [2′,3′:4,5]thieno[3,2-d]pyrimidine-2,4(1H,3H)-dione trihydrochloride], the melting point is 280 to 282 °C.

`COc1cccc2c1N1CCN(CCCCn3c(=O)[nH]c4c(sc5ncccc54)c3=O)CC1CO2` (single isomer, unassigned; (-)) (as salt: hydrochloride) [Example 11, (−) 3-[4-(10-methoxy-1,2,4a,5-tetrahydropyrazino[2,1-c][1,4]benzoxazin-3(4H)-yl)butyl]pyrido[3′,2′:4.5]thieno[3,2-d]pyrimidine-2,4(1H,3H)-dione trihydrochloride] displayed a melting point of 207 to 210 °C.

On to `O=c1[nH]c2c(sc3cccnc32)c(=O)n1CCCCN1CCN2c3ccccc3OCC2C1` (single isomer, unassigned; (-)) (as salt: hydrochloride) [Example 4, (−) 3-[4-(1.2,4a,5-tetrahydropyrazino[2,1-c][1,4benzoxazin-3(4H)-yl)butyl]pyrido[2′,3′:4,5]thieno[3,2-d]pyrimidine-2,4(1H,3H)-dione dihydrochloride], for which the melting point lay within 282 to 284 °C.
